Measured values reported in ChEMBL document CHEMBL1201862, “PubChem BioAssay data set” (2004).
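Growth conditions: 96-well plates. Treatment: test compound, 48 hours, 5 concentrations. Analysis: linear interpolation between bracketing concentrations; unreached endpoints set to highest concentration. Here, GI50 denotes the concentration required for 50% inhibition of growth.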 Activity calls are given as the source filed them. Cut-off read from the data, not from the text of the source: active = GI50 up to about 1.1 µM and inactive = higher.

Columns and labels:
Assay in all cases: NCI tumour cell line growth inhibition, 48 h
HL-60 = tested on: HL-60
RPMI-8226 = tested on: RPMI-8226
SNB-78 = tested on: SNB-78
LOX IMVI = tested on: LOX IMVI
HOP-18 = tested on: HOP-18
OVCAR-8 = tested on: OVCAR-8
SNB-19 = tested on: SNB-19
SN12C = tested on: SN12C
COLO 205 = tested on: COLO 205
EKVX = tested on: EKVX
CCRF-CEM = tested on: CCRF-CEM
OVCAR-4 = tested on: OVCAR-4
MOLT-4 = tested on: MOLT-4
M14 = tested on: M14
HCC 2998 = tested on: HCC 2998
XF498 = tested on: XF498
K562 = tested on: K562
DLD-1 = tested on: DLD-1
TK-10 = tested on: TK-10
786-0 = tested on: 786-0
M19-MEL = tested on: M19-MEL
Malme-3M = tested on: Malme-3M
SK-OV-3 = tested on: SK-OV-3
IGROV-1 = tested on: IGROV-1
LXFL 529 = tested on: LXFL 529
SW-620 = tested on: SW-620
UACC-62 = tested on: UACC-62
NCI-H522 = tested on: NCI-H522
KM12 = tested on: KM12
UO-31 = tested on: UO-31
HOP-92 = tested on: HOP-92
HT-29 = tested on: HT-29
UACC-257 = tested on: UACC-257
ACHN = tested on: ACHN
SR = tested on: SR
OVCAR-5 = tested on: OVCAR-5
NCI-H23 = tested on: NCI-H23
HOP-62 = tested on: HOP-62
SNB-75 = tested on: SNB-75
NCI-H460 = tested on: NCI-H460
SF-539 = tested on: SF-539
SK-MEL-28 = tested on: SK-MEL-28

Measured: GI50

Oc1cc(-c2ccccn2)nc2ccc(Cl)cc12
inactive: HL-60 10.9 µM | RPMI-8226 18.2 µM | SNB-78 80.7 µM | LOX IMVI 30.8 µM | HOP-18 57.5 µM | OVCAR-8 44.2 µM | SNB-19 > 100 µM | SN12C 48 µM | COLO 205 36.6 µM | EKVX 44 µM | CCRF-CEM 36.5 µM | OVCAR-4 47.1 µM | MOLT-4 53.7 µM | M14 36.9 µM | HCC 2998 58.9 µM | XF498 21.5 µM | K562 12.8 µM | DLD-1 41.5 µM | TK-10 95.7 µM | 786-0 72.9 µM | M19-MEL 24.8 µM | Malme-3M 21.7 µM | SK-OV-3 36 µM | IGROV-1 64.1 µM | LXFL 529 27.3 µM | SW-620 19.8 µM | UACC-62 28.7 µM | NCI-H522 7.35 µM | KM12 24 µM | UO-31 36.1 µM | HOP-92 > 100 µM | HT-29 33 µM | UACC-257 31.7 µM | ACHN 58.6 µM | SR > 100 µM | OVCAR-5 > 100 µM | NCI-H23 29.5 µM | HOP-62 40.3 µM | SNB-75 18.8 µM | NCI-H460 38.1 µM | SF-539 31.8 µM | SK-MEL-28 34.8 µM
